Measurements reported in PubChem BioAssay AID489035 (Sanford-Burnham Center for Chemical Genomics, 2010).
The source made the active and inactive calls. The rule behind the calls is not given here.

Tested on: Jurkat NF-kB reporter, TCR-induced, luciferase luminescence
Assay: inhibitors of TCR-driven NF-kB activation, dose response, Jurkat cells, luminescence (AID 489035)

Row | Compound | IC50
1 | O=C(NC(Nc1nc2ccc([N+](=O)[O-])cc2s1)(C(F)(F)F)C(F)(F)F)c1ccccc1 | > 80 µM (inactive)
2 | C=C1C(=O)C=C2CN(C(=O)c3ccccc3)[C@@](Cc3ccc(F)cc3)(C(=O)OC)[C@@H]12 | 0.89 µM
3 | COc1cc(/C=C/c2ccc3cccc(O)c3n2)cc(OC)c1OC | 1.59 µM
4 | CCCc1cc(C(=O)Nc2cc(C)ccc2O)no1 | > 80 µM (inactive)
5 | CCN(CC)S(=O)(=O)c1cc(NC(=O)CNc2cccc(S(=O)(=O)N3CCCC3)c2)ccc1C | > 80 µM (inactive)
6 | O=C(Nc1ccc(C(F)(F)F)cc1)c1cccn(Cc2ccc3c(c2)OC(F)(F)O3)c1=O | 17.2 µM
7 | CCO[C@H]1OC(C(=O)NCc2nc3ccccc3[nH]2)=C[C@@H](C2CC2)[C@@H]1CCCO | > 80 µM (inactive)
8 | COc1cc(CC(=O)OCC(=O)c2ccc3c(c2)OCCO3)cc(OC)c1OC | > 80 µM (inactive)
9 | CCCCOc1ccccc1C1CC(=O)NC2=C1C(=O)CCC2 (stereo unspecified) | > 80 µM (inactive)
10 | CCOc1ccc(N(CC(=O)Nc2ccccc2C)S(=O)(=O)c2c(C)noc2C)cc1 | > 80 µM (inactive)
11 | COc1ccc(C(=O)c2ccc(N(C)C)cc2)c(OC)c1 | > 80 µM (inactive)
12 | COc1cc(NS(=O)(=O)c2ccc(C)cc2)c2ncccc2c1 | 2.12 µM
13 | CCn1c2ccccc2c2cc(NC(=O)c3cc(OC)c(OC)c(OC)c3)ccc21 | 76.2 µM (inactive)
14 | COc1cccc(N2CCN(C(=O)c3ccc(CS(=O)c4ccccc4Cl)o3)CC2)c1 (stereo unspecified) | > 80 µM (inactive)
15 | CCN1/C(=C/c2ccc3cc(C)ccc3[n+]2CC)Sc2ccc3sccc3c21 | 3.1 µM
16 | CC(C)Nc1ccc(C(CC(N)=O)NC(=O)c2ccc(Br)cc2)cc1[N+](=O)[O-] (stereo unspecified) | 4.05 µM
17 | CNC[C@@H](CC1CCCCC1)NC[C@H](CC(C)C)NCCc1cccc(C(F)(F)F)c1 | 5 µM
18 | COc1ccccc1N1CCN(C(=O)C2c3ccccc3Oc3ccccc32)CC1 | 57.2 µM (inactive)
19 | Cn1nc(CC(=O)Nc2ccc(N3CCN(C(=O)OC(C)(C)C)CC3)cc2)c2ccccc2c1=O | > 80 µM (inactive)
20 | Cc1ccc(S(=O)(=O)Nc2ccccc2-c2ccccc2)cc1 | 22.6 µM (inactive)
21 | COc1cccc2sc(Nc3nnc(-c4ccccc4Cl)o3)nc12 | > 80 µM (inactive)
22 | Cc1csc2ncnc(NC3CCN(Cc4ccccc4)CC3)c12 | > 80 µM (inactive)
23 | Cc1ccc(O)c(NC(=O)c2cc(-c3ccco3)on2)c1 | > 80 µM (inactive)
24 | Clc1ccc(CSc2nncn2-c2ccc3c(c2)OCCO3)cc1 | > 80 µM (inactive)
25 | Cc1ccc2nc(SCC(=O)Nc3cc(C(F)(F)F)ccc3N3CCOCC3)[nH]c2c1 | > 80 µM (inactive)
26 | Brc1ccc2c(c1)C(C1=NCCN1)c1ccccc1CS2 (stereo unspecified) | > 80 µM (inactive)

Row | Compound | IC50
27 | O=C(c1ccc(CS(=O)c2ccccc2Cl)o1)N1CCN(c2ccccn2)CC1 (stereo unspecified) | 68.2 µM (inactive)
28 | CCOC(=O)C(C)Oc1cccc2c(=O)n(CC(=O)NCc3ccc(F)cc3)ccc12 (stereo unspecified) | > 80 µM (inactive)
29 | COC(=O)C[C@]1(C(=O)OC)CN(C#N)N(c2ccc(Cl)cc2)C12c1ccccc1-c1ccccc12 | 0.73 µM
30 | COc1ccc(C(=O)/C(C#N)=N/Nc2ccc([N+](=O)[O-])cc2)cc1 | 9.52 µM
31 | O=c1cc(-c2ccccc2)[nH]c2cc(F)ccc12 | > 80 µM (inactive)
32 | CCC(O)C1CCN(C(=O)c2cc(COc3ccc4ncccc4c3)on2)CC1 (stereo unspecified) | 0.69 µM
33 | Cc1cccc(N2CCN(C(=O)c3c(-c4ccccc4Cl)noc3C)CC2)c1C | 78.6 µM (inactive)
34 | O=C(Cc1ccc(-c2ccccc2)cc1)NCc1ccccc1 | < 0.16 µM
35 | COc1ccc2nc(C)cc(N/N=C/c3ccc(F)cc3)c2c1 | 2.35 µM
36 | COc1cccc(CN(C)C(=O)c2cc(COc3ccc4ncccc4c3)on2)c1 | 12.5 µM
37 | Cc1noc(C)c1COc1ccc(C(=O)NNC(=O)c2ccccc2F)cc1 | > 80 µM (inactive)
38 | CCc1ccc(/C=N/NC(=O)c2cc(C3CC3)nc3ccccc23)s1 | 20 µM (inactive)
39 | COc1cc(-c2c(-c3cc(OC)c(OC)c(OC)c3)noc2C)ccc1F | 31.6 µM (inactive)
40 | Cc1[nH]n(-c2ccccc2)c(=O)c1/C=N/Nc1nncc(-c2ccccc2)n1 | 3.32 µM
41 | COc1cc(NS(=O)(=O)c2ccc(OC)c(C)c2C)c(OC)cc1Cl | > 80 µM (inactive)
42 | CC(C)(C)C(=O)Nc1ccc(NC(=O)c2ccco2)nc1 | 0.81 µM
43 | Cc1cc(-n2c(C)cc(C(=O)CSc3ncnc4ccccc34)c2C)no1 | < 0.16 µM
44 | COc1ccccc1C(=O)Nc1nc2ccccc2s1 | 0.77 µM
45 | O=C(N/N=C(\c1ccccc1)c1cccnc1)c1cccc(F)c1 | 5.3 µM
46 | Cc1ccc(Nc2cc(C)nn2-c2nc(C)cc(=O)[nH]2)cc1 | 0.92 µM
47 | COc1ccc(OCC(=O)Nc2ccccc2N2CCCCC2)cc1 | > 80 µM (inactive)
48 | O=C(Sc1cccc2cccnc12)c1ccc(F)cc1 | 0.99 µM
49 | COc1ccccc1-c1nnc2sc(-c3ccc(N(C)C)cc3)nn12 | > 80 µM (inactive)
50 | Cc1ccc(N/C(N)=N/c2nc(CSc3nnc(C)s3)cc(=O)[nH]2)c(C)c1 | 42.1 µM (inactive)
51 | O=C(Nc1ncc(Cc2ccc(SC(F)F)cc2)s1)c1ccc(OC(F)F)cc1 | 7.42 µM
